The source of these data is ChEMBL document CHEMBL1150805, “New cytotoxic isomalabaricane triterpenes from the sponge Jaspis species” (J Nat Prod, 2001).

Molecules are shown by their SMILES.

The test system of test [1] is MOLT-4. Kind of test: Antiproliferative activity against human MOLT4 cells. The test is classed as functional, cell-based.
Test [2] relates to Malme-3M. As to the kind of experiment: Antiproliferative activity against human MALME-3M cells. The test is classed as functional, cell-based.

Turning to `CC(=O)O[C@@H](CC=C(C)C)/C(C)=C/C=C/C(C)=C1\C(=O)C[C@H]2[C@@]3(C)CC[C@@H](O)[C@](C)(CO)[C@@H]3CC[C@]12C` (mixture of isomers), the IC50 in test [1] amounted to 4.11 µg/mL; in test [2], 0.23 µg/mL.
Regarding `CC(=O)O[C@H]1CC[C@@]2(C)[C@@H](CC[C@]3(C)/C(=C(C)/C=C/C=C(\C)[C@@H](O)CC=C(C)C)C(=O)C[C@@H]23)[C@@]1(C)CO` (mixture of isomers), the IC50 worked out at 1.62 µg/mL in test [1] and 0.11 µg/mL in test [2].
With `CC(=O)O[C@@H](CC=C(C)C)/C(C)=C/C=C/C(C)=C1\C(=O)C[C@H]2[C@@]3(C)CC[C@@H](OC(C)=O)[C@](C)(CO)[C@@H]3CC[C@]12C` (mixture of isomers), the IC50 in test [1] is 16.6 µg/mL; in test [2] it was 1.2 µg/mL.
Turning to `CC(=O)O[C@@H](CC=C(C)C)/C(C)=C/C=C/C(C)=C1\C(=O)C[C@H]2[C@@]3(C)CC[C@H](OC(C)=O)[C@](C)(CO)[C@@H]3CC[C@]12C` (mixture of isomers), the half-maximal inhibitory concentration (IC50) in test [1] amounted to 19.5 µg/mL; in test [2], 2.27 µg/mL.

Broadly, the IC50 is the point on the concentration scale where inhibition reaches its midpoint.
